This note sets out measurements from PubChem BioAssay AID330 (DTP/NCI, 2004).

Where “and” joins values, the source holds several entries; their conditions need not be identical. Equal entries are not always repeated. Inconclusive results and toxic doses are left out.

This test concerns P388 leukemia ip, CD2F1 mice, survival T/C. The experiment in a line: NCI In Vivo Anticancer Drug Screen. Data for tumor model P388 Leukemia (intraperitoneal) in CD2F1 (CDF1) mice. Conditions: endpoint: median survival time, higher = longer survival. In short, it runs like this: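 Mice carrying the transplanted tumor received test compound or vehicle. Survival was recorded in each group, and the value is the treated-group measurement divided by that of the vehicle-treated control group.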

[1] abbreviates: dose: 50.0 mg/kg/injection, schedule: Q01DX005 (ip), vehicle: saline with Tween-80.
[2] abbreviates: dose: 100.0 mg/kg/injection, schedule: Q01DX005 (ip), vehicle: saline with Tween-80.
The mark [3] stands for this setting: dose: 200.0 mg/kg/injection, schedule: Q01DX005 (ip), vehicle: saline with Tween-80.
The mark [4] stands for this setting: dose: 60.0 mg/kg/injection, schedule: Q01DX005 (ip), vehicle: Klucel (hydroxypropylcellulose) (HPC).
[5] abbreviates: dose: 120.0 mg/kg/injection, schedule: Q01DX005 (ip), vehicle: Klucel (hydroxypropylcellulose) (HPC).
Where [6] appears, read: dose: 240.0 mg/kg/injection, schedule: Q01DX005 (ip), vehicle: Klucel (hydroxypropylcellulose) (HPC).
The mark [7] stands for this setting: dose: 50.0 mg/kg/injection, schedule: Q01DX009 (ip), vehicle: Klucel (hydroxypropylcellulose) (HPC).
[8] abbreviates: dose: 50.0 mg/kg/injection, schedule: Q01DX009 (ip), vehicle: saline.
Setting [9] is: dose: 100.0 mg/kg/injection, schedule: Q01DX009 (ip), vehicle: Klucel (hydroxypropylcellulose) (HPC).
Setting [10] is: dose: 100.0 mg/kg/injection, schedule: Q01DX009 (ip), vehicle: saline.
Setting [11] is: dose: 200.0 mg/kg/injection, schedule: Q01DX009 (ip), vehicle: Klucel (hydroxypropylcellulose) (HPC).
[12] abbreviates: dose: 200.0 mg/kg/injection, schedule: Q01DX009 (ip), vehicle: saline.
[13] abbreviates: dose: 50.0 mg/kg/injection, schedule: Q01DX005 (ip), vehicle: saline.
Setting [14] is: dose: 100.0 mg/kg/injection, schedule: Q01DX005 (ip), vehicle: saline.
Where [15] appears, read: dose: 200.0 mg/kg/injection, schedule: Q01DX005 (ip), vehicle: saline.
[16] abbreviates: dose: 200.0 mg/kg/injection, schedule: Q01DX001 (ip), vehicle: Klucel (hydroxypropylcellulose) (HPC).

As to `CC(=O)C1=C(O)C(=O)N(c2ccccc2)C1=O`, the T/C by setting is: under setting [1], 97 % of control; under setting [2], 102 % of control; under setting [3], 100 % of control.

On to `COc1ccc(Cl)c2c1C(=O)C1C(=O)C3C(O)=C(C(=O)NC(C)(C)C)C(=O)C(NC(=O)c4ccccc4)C3CC1C2` (centres undefined), for which the T/C under setting [4] was 97 % of control, the T/C under setting [5] is 116 % of control and the T/C under setting [6] was 190 % of control.

Consider `CCS(=O)(=O)OCCCNCCCOS(=O)(=O)CC`, for which the T/C is 124 % of control (dose: 12.5 mg/kg/injection, schedule: Q01DX001 (ip), vehicle: saline); 154 % of control (dose: 12.5 mg/kg/injection, schedule: Q04DX003 (ip), vehicle: saline); 86 % of control (dose: 25.0 mg/kg/injection, schedule: Q01DX001 (ip), vehicle: saline); 215 % of control (dose: 25.0 mg/kg/injection, schedule: Q01DX009 (ip), vehicle: saline); 160 % of control (dose: 25.0 mg/kg/injection, schedule: Q04DX003 (ip), vehicle: saline); 201 % of control under setting [7]. Also, the T/C was 268 % of control under setting [8]; 193 % of control (dose: 50.0 mg/kg/injection, schedule: Q04DX003 (ip), vehicle: saline); 156 % of control (dose: 100.0 mg/kg/injection, schedule: Q01DX001 (ip), vehicle: saline); 199 % of control under setting [9]; 277 % of control under setting [10]; 209 % of control (dose: 100.0 mg/kg/injection, schedule: Q04DX003 (ip), vehicle: saline). For the same molecule, the T/C runs as follows: (dose: 200.0 mg/kg/injection, schedule: Q01DX001 (ip), vehicle: saline) 173 % of control; under setting [11], 94 % of control; under setting [12], 175 % of control; (dose: 200.0 mg/kg/injection, schedule: Q04DX003 (ip), vehicle: saline) 272 % of control; (dose: 400.0 mg/kg/injection, schedule: Q01DX001 (ip), vehicle: saline) 181 % of control.

Regarding `COC(=O)CS(=O)(=O)CCCS(=O)(=O)CC(=O)OC`, the T/C under setting [8] was 105 % of control, the T/C under setting [10] was 99 % of control and the T/C under setting [12] is 103 % of control.

Take `CC(NC(=O)CNC(=O)CN)C(=O)O` (centres undefined): the T/C is, setting by setting: (dose: 25.0 mg/kg/injection, schedule: Q01DX005 (ip), vehicle: saline) 102 % of control; under setting [13], 92 % of control; under setting [14], 94 % of control; under setting [15], 94 % of control.

As to `COC1(OC)C(=S)N(C(C)C)C(=S)N1C(C)C`, the T/C was 100 % of control (dose: 50.0 mg/kg/injection, schedule: Q01DX005 (ip), vehicle: Klucel (hydroxypropylcellulose) (HPC)); 96 % of control (dose: 100.0 mg/kg/injection, schedule: Q01DX005 (ip), vehicle: Klucel (hydroxypropylcellulose) (HPC)); 100 % of control (dose: 200.0 mg/kg/injection, schedule: Q01DX005 (ip), vehicle: Klucel (hydroxypropylcellulose) (HPC)).

For the molecule `CC1CCCN2C(=O)CN(C3CCCCC3)CC(=O)N12` (centres undefined), the T/C runs as follows: under setting [1], 100 % of control; under setting [2], 100 % of control; under setting [3], 100 % of control.

Take `O=C1C(c2ccccc2)=C(c2ccccc2)C(=O)N1c1ccccn1`: the T/C by setting is: under setting [7], 94 % of control; under setting [9], 105 % of control; under setting [11], 103 % of control.

Regarding `CCN(CCN(C)c1ccccc1)Cc1ccccc1`, the T/C by setting is: (dose: 50.0 mg/kg/injection, schedule: Q01DX009 (ip), vehicle: saline with Tween-80) 105 % of control; (dose: 100.0 mg/kg/injection, schedule: Q01DX009 (ip), vehicle: saline with Tween-80) 103 % of control; (dose: 200.0 mg/kg/injection, schedule: Q01DX009 (ip), vehicle: saline with Tween-80) 105 % of control.

In the case of `OC1(c2ccc(CCc3ccc(C4(O)C(c5ccccc5)=C(c5ccccc5)C(c5ccccc5)=C4c4ccccc4)cc3)cc2)C(c2ccccc2)=C(c2ccccc2)C(c2ccccc2)=C1c1ccccc1`, the T/C by setting is: (dose: 6.25 mg/kg/injection, schedule: Q01DX009 (ip), vehicle: saline with Tween-80) 100 % of control; (dose: 12.5 mg/kg/injection, schedule: Q01DX009 (ip), vehicle: saline with Tween-80) 97 % of control; (dose: 25.0 mg/kg/injection, schedule: Q01DX009 (ip), vehicle: saline with Tween-80) 93 % of control; under setting [16], 89 % of control.

Take `CCCC(C)C(CC)C(=O)NC(N)=O` (centres undefined): the T/C is 101 % of control (dose: 12.5 mg/kg/injection, schedule: Q01DX009 (ip), vehicle: Klucel (hydroxypropylcellulose) (HPC)); 102 % of control (dose: 25.0 mg/kg/injection, schedule: Q01DX009 (ip), vehicle: Klucel (hydroxypropylcellulose) (HPC)); 98 % of control under setting [7]; 101 % of control under setting [9].

In the case of `COc1ccc2c(c1)OC(C)(C)c1c-2n(C)c2c(F)cccc2c1=O`, the T/C reads like this: under setting [4], 100 % of control; under setting [5], 101 % of control; under setting [6], 101 % of control.

Take `CCOc1c(N=Nc2ccc(Cl)cc2Cl)c(C)nn1C(=S)S`: the T/C was 90 % of control (dose: 60.0 mg/kg/injection, schedule: Q01DX005 (ip), vehicle: Klucel + Tween-80); 103 % of control (dose: 120.0 mg/kg/injection, schedule: Q01DX005 (ip), vehicle: Klucel + Tween-80); 100 % of control (dose: 240.0 mg/kg/injection, schedule: Q01DX005 (ip), vehicle: Klucel + Tween-80).

On to `O=S1(=O)CCOc2ccccc2N1`, for which the T/C by setting is: (dose: 100.0 mg/kg/injection, schedule: Q04DX003 (ip), vehicle: Klucel (hydroxypropylcellulose) (HPC)) 96 % of control; (dose: 200.0 mg/kg/injection, schedule: Q04DX003 (ip), vehicle: Klucel (hydroxypropylcellulose) (HPC)) 96 % of control; (dose: 400.0 mg/kg/injection, schedule: Q04DX003 (ip), vehicle: Klucel (hydroxypropylcellulose) (HPC)) 90 % of control.

Turning to `CC1=C(C)CC2C(=O)c3c(c(O)c4ccccc4c3Cl)C(=O)C2C1` (centres undefined), the T/C was 90 % of control (dose: 50.0 mg/kg/injection, schedule: Q01DX001 (ip), vehicle: Klucel (hydroxypropylcellulose) (HPC)); 89 % of control (dose: 100.0 mg/kg/injection, schedule: Q01DX001 (ip), vehicle: Klucel (hydroxypropylcellulose) (HPC)); 86 % of control and 90 % of control under setting [16]; 92 % of control (dose: 400.0 mg/kg/injection, schedule: Q01DX001 (ip), vehicle: Klucel (hydroxypropylcellulose) (HPC)).

Turning to `COc1cc(C)c(O)c(C/C=C(\C)CC2=C[C@@]3(C)CCC[C@@]3(C)[C@]3(C=CC(C)(C)O3)O2)c1`, the T/C is, setting by setting: (dose: 10.0 mg/kg/injection, schedule: Q01DX005 (ip), vehicle: saline with Tween-80) 94 % of control; (dose: 20.0 mg/kg/injection, schedule: Q01DX005 (ip), vehicle: saline with Tween-80) 99 % of control; (dose: 40.0 mg/kg/injection, schedule: Q01DX005 (ip), vehicle: saline with Tween-80) 99 % of control.

As for `C[C@H]1C(=O)N(C)C(=O)[C@@H]1N`, the T/C under setting [13] was 97 % of control, the T/C under setting [14] was 97 % of control and the T/C under setting [15] is 95 % of control.

On to `C/C(CCl)=N\NC1=NC2(CCCCC2)P(=O)(NNc2ncccn2)S1` (centres undefined), for which the T/C reads like this: (dose: 37.5 mg/kg/injection, schedule: Q01DX005 (ip), vehicle: Klucel (hydroxypropylcellulose) (HPC)) 103 % of control; under setting [4], 102 % of control; (dose: 75.0 mg/kg/injection, schedule: Q01DX005 (ip), vehicle: Klucel (hydroxypropylcellulose) (HPC)) 102 % of control; under setting [5], 100 % of control.

With `C=CC(=O)NC(C(=O)O)C(C)C` (centres undefined), the T/C by setting is: under setting [13], 97 % of control; under setting [14], 97 % of control; under setting [15], 100 % of control.

Regarding `CC(=O)OC(C)C1CC2C=C(C(N)=O)C1N(Cc1ccccc1)C2` (centres undefined), the T/C is, setting by setting: (dose: 8.75 mg/kg/injection, schedule: Q01DX005 (ip), vehicle: Klucel (hydroxypropylcellulose) (HPC)) 97 % of control; (dose: 17.5 mg/kg/injection, schedule: Q01DX005 (ip), vehicle: Klucel (hydroxypropylcellulose) (HPC)) 93 % of control; (dose: 35.0 mg/kg/injection, schedule: Q01DX005 (ip), vehicle: Klucel (hydroxypropylcellulose) (HPC)) 97 % of control.
